Measurements published in PubChem BioAssay AID248 (DTP/NCI, 2004).
Inconclusive results and toxic doses are left out. Rule as the data show it: active = T/C of 150% or more; inactive = T/C below 125%.

Tested on: L1210 leukemia ip in BDF1 mice, survival T/C
Test: NCI In Vivo Anticancer Drug Screen. Data for tumor model L1210 Leukemia (intraperitoneal) in B6D2F1 (BDF1) mice
Settings: endpoint: mean survival time, higher = longer survival
Procedure, shortened: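 Mice bearing the transplanted tumor received compound or vehicle. Survival of the treated group was divided by that of the vehicle-treated control group to give the ratio.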

[1] = dose: 100.0 mg/kg/injection, schedule: Q04DX003 (ip), vehicle: saline with Tween-80
[2] = dose: 200.0 mg/kg/injection, schedule: Q04DX003 (ip), vehicle: saline with Tween-80
[3] = dose: 400.0 mg/kg/injection, schedule: Q04DX003 (ip), vehicle: saline with Tween-80
[4] = dose: 100.0 mg/kg/injection, schedule: Q01DX001 (ip), vehicle: carboxymethylcellulose (CMC)
[5] = dose: 200.0 mg/kg/injection, schedule: Q01DX001 (ip), vehicle: carboxymethylcellulose (CMC)
[6] = dose: 400.0 mg/kg/injection, schedule: Q01DX001 (ip), vehicle: carboxymethylcellulose (CMC)
[7] = dose: 100.0 mg/kg/injection, schedule: Q04DX003 (ip), vehicle: Klucel (hydroxypropylcellulose) (HPC)
[8] = dose: 200.0 mg/kg/injection, schedule: Q04DX003 (ip), vehicle: Klucel (hydroxypropylcellulose) (HPC)
[9] = dose: 100.0 mg/kg/injection, schedule: Q01DX009 (ip), vehicle: Klucel (hydroxypropylcellulose) (HPC)
[10] = dose: 200.0 mg/kg/injection, schedule: Q01DX009 (ip), vehicle: Klucel (hydroxypropylcellulose) (HPC)
[11] = dose: 400.0 mg/kg/injection, schedule: Q01DX009 (ip), vehicle: Klucel (hydroxypropylcellulose) (HPC)
[12] = dose: 400.0 mg/kg/injection, schedule: Q04DX003 (ip), vehicle: Klucel (hydroxypropylcellulose) (HPC)

Measured: T/C

NCCC1CCCCN1 (stereo not drawn)
inactive: dose: 100.0 mg/kg/injection, schedule: Q04DX003 (ip), vehicle: acetone 108 % of control | dose: 150.0 mg/kg/injection, schedule: Q01DX009 (ip), vehicle: saline 117 % of control | dose: 225.0 mg/kg/injection, schedule: Q01DX009 (ip), vehicle: saline 101 % of control | dose: 335.0 mg/kg/injection, schedule: Q01DX009 (ip), vehicle: saline 110 % of control

COc1ccc(NC(=O)C(c2ccccc2)c2ccccc2)cc1
inactive: [1] 92 % of control | [2] 93 % of control | [3] 92 % of control

C[N+]1(CC2CO2)CCCCCC1 (stereo not drawn)
inactive: dose: 75.0 mg/kg/injection, schedule: Q01DX001 (ip), vehicle: saline 95 % of control

O=C1C(=O)c2ccccc2C(O)=C1c1ccc2ccccc2c1
inactive: dose: 50.0 mg/kg/injection, schedule: Q01DX001 (ip), vehicle: carboxymethylcellulose (CMC) 96 % of control | [4] 96 % of control | [5] 91 % of control | [6] 96 % of control

[O-]c1on[n+](-c2ccccc2)c1-c1ccccc1
inactive: dose: 75.0 mg/kg/injection, schedule: Q01DX009 (ip), vehicle: Klucel (hydroxypropylcellulose) (HPC) 93 % of control | dose: 75.0 mg/kg/injection, schedule: Q04DX003 (ip), vehicle: Klucel (hydroxypropylcellulose) (HPC) 109 % of control | dose: 150.0 mg/kg/injection, schedule: Q01DX009 (ip), vehicle: Klucel (hydroxypropylcellulose) (HPC) 97 % of control | dose: 150.0 mg/kg/injection, schedule: Q04DX003 (ip), vehicle: Klucel (hydroxypropylcellulose) (HPC) 105 % of control | dose: 300.0 mg/kg/injection, schedule: Q01DX009 (ip), vehicle: Klucel (hydroxypropylcellulose) (HPC) 95 % of control | dose: 300.0 mg/kg/injection, schedule: Q04DX003 (ip), vehicle: Klucel (hydroxypropylcellulose) (HPC) 107 % of control

O=C(O)/C=C/c1ccccn1
inactive: dose: 20.0 mg/kg/injection, schedule: Q04DX003 (ip), vehicle: Klucel (hydroxypropylcellulose) (HPC) 102 % of control | dose: 40.0 mg/kg/injection, schedule: Q04DX003 (ip), vehicle: Klucel (hydroxypropylcellulose) (HPC) 100 % of control | dose: 80.0 mg/kg/injection, schedule: Q04DX003 (ip), vehicle: Klucel (hydroxypropylcellulose) (HPC) 94 % of control | [7] 93 % of control | [8] 100 % of control

Cc1cn(C2CC(O)C(CF)O2)c(=O)[nH]c1=O (stereo not drawn)
inactive: dose: 100.0 mg/kg/injection, schedule: Q01DX005 (ip), vehicle: saline 117 % of control | dose: 200.0 mg/kg/injection, schedule: Q01DX005 (ip), vehicle: saline 122 % of control

CCN(CC)CCCC(C)NC(=O)c1ccc(Cl)nc1 (stereo not drawn)
inactive: dose: 50.0 mg/kg/injection, schedule: Q01DX009 (ip), vehicle: saline with Tween-80 105 % of control | dose: 100.0 mg/kg/injection, schedule: Q01DX009 (ip), vehicle: saline with Tween-80 103 % of control | dose: 200.0 mg/kg/injection, schedule: Q01DX009 (ip), vehicle: saline with Tween-80 95 % of control

CCNC1(c2ccc(Cl)cc2)CCCCC1=O (stereo not drawn)
inactive: dose: 50.0 mg/kg/injection, schedule: Q01DX009 (ip), vehicle: saline 105 % of control | dose: 100.0 mg/kg/injection, schedule: Q01DX009 (ip), vehicle: saline 102 % of control | dose: 100.0 mg/kg/injection, schedule: Q04DX003 (ip), vehicle: saline 104 % of control | dose: 200.0 mg/kg/injection, schedule: Q04DX003 (ip), vehicle: saline 106 % of control

Cc1ccc(S(=O)(=O)C2CCCCC2Cl)cc1 (stereo not drawn)
inactive: [4] 109 % of control | [5] 102 % of control | [6] 98 % of control

O=C(CCCl)Oc1ccc(Cl)cc1
inactive: [1] 92 % of control | [2] 93 % of control | [3] 100 % of control

CC(C)(c1cc(Br)c(O)c(Br)c1)c1cc(Br)c(O)c(Br)c1
inactive: [9] 93 % of control | [7] 100 % of control | [10] 94 % of control | [8] 92 % of control | [11] 91 % of control | [12] 103 % of control

CCOC(=O)Nc1ccccc1
inactive: [9] 97 % of control | [7] 93 % of control | [10] 103 % of control | [8] 93 % of control | [11] 103 % of control | [12] 88 % of control

Oc1c(Cl)cc(Cl)cc1/C=C1\C=Nc2ccccc21
inactive: dose: 100.0 mg/kg/injection, schedule: Q04DX002 (ip), vehicle: saline 97 % of control | dose: 200.0 mg/kg/injection, schedule: Q04DX002 (ip), vehicle: saline 94 % of control | dose: 400.0 mg/kg/injection, schedule: Q04DX002 (ip), vehicle: saline 102 % of control
